From PubChem BioAssay AID248 (DTP/NCI, 2004) come the findings set out here.

Several values for one entry are separate records, joined by “and”; a condition that tells them apart may be missing. Identical values can stand only once. Toxic doses and inconclusive results are not listed.

The experiment concerns L1210 leukemia ip in BDF1 mice, survival T/C. As to the kind of experiment: NCI In Vivo Anticancer Drug Screen. Data for tumor model L1210 Leukemia (intraperitoneal) in B6D2F1 (BDF1) mice. Conditions: endpoint: mean survival time, higher = longer survival. The method in brief:
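Tumor cells were implanted, animals were treated, and survival was followed. The result divides the treated measurement by the vehicle-control measurement.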

Setting [1] is: dose: 100.0 mg/kg/injection, schedule: Q01DX009 (ip), vehicle: Klucel (hydroxypropylcellulose) (HPC).
[2] abbreviates: dose: 100.0 mg/kg/injection, schedule: Q04DX003 (ip), vehicle: Klucel (hydroxypropylcellulose) (HPC).
The mark [3] stands for this setting: dose: 200.0 mg/kg/injection, schedule: Q01DX009 (ip), vehicle: Klucel (hydroxypropylcellulose) (HPC).
[4] abbreviates: dose: 200.0 mg/kg/injection, schedule: Q04DX003 (ip), vehicle: Klucel (hydroxypropylcellulose) (HPC).
[5] abbreviates: dose: 400.0 mg/kg/injection, schedule: Q01DX009 (ip), vehicle: Klucel (hydroxypropylcellulose) (HPC).
Where [6] appears, read: dose: 400.0 mg/kg/injection, schedule: Q04DX003 (ip), vehicle: Klucel (hydroxypropylcellulose) (HPC).
Where [7] appears, read: dose: 100.0 mg/kg/injection, schedule: Q04DX003 (ip), vehicle: saline with Tween-80.
Where [8] appears, read: dose: 200.0 mg/kg/injection, schedule: Q04DX003 (ip), vehicle: saline with Tween-80.
[9] abbreviates: dose: 400.0 mg/kg/injection, schedule: Q04DX003 (ip), vehicle: saline with Tween-80.
Setting [10] is: dose: 12.5 mg/kg/injection, schedule: Q01DX009 (ip), vehicle: saline.
[11] abbreviates: dose: 12.5 mg/kg/injection, schedule: Q04DX003 (ip), vehicle: saline.
The mark [12] stands for this setting: dose: 25.0 mg/kg/injection, schedule: Q01DX009 (ip), vehicle: saline.
Setting [13] is: dose: 25.0 mg/kg/injection, schedule: Q04DX003 (ip), vehicle: saline.
Setting [14] is: dose: 100.0 mg/kg/injection, schedule: Q04DX003 (ip), vehicle: saline.
Setting [15] is: dose: 200.0 mg/kg/injection, schedule: Q04DX003 (ip), vehicle: saline.
The mark [16] stands for this setting: dose: 400.0 mg/kg/injection, schedule: Q04DX003 (ip), vehicle: saline.
The mark [17] stands for this setting: dose: 100.0 mg/kg/injection, schedule: Q04DX002 (ip), vehicle: Klucel (hydroxypropylcellulose) (HPC).

For the compound `CN(N=O)c1ccc(N(C)N=O)cc1`, the T/C was 100 % of control (dose: 50.0 mg/kg/injection, schedule: Q01DX009 (ip), vehicle: Klucel (hydroxypropylcellulose) (HPC)); 97 % of control under setting [1]; 96 % of control under setting [2]; 102 % of control under setting [3]; 93 % of control under setting [4]; 92 % of control under setting [5]. Under setting [6], the T/C was 96 % of control.
`NNC(=O)CCCO`: the T/C under setting [7] is 103 % of control, the T/C under setting [8] was 98 % of control and the T/C under setting [9] was 101 % of control.
Regarding `C[n+]1cc2ccccc2c2ccccc21`, the T/C (dose: 6.25 mg/kg/injection, schedule: Q01DX009 (ip), vehicle: water) was 104 % of control; the T/C under setting [10] was 92 % of control; the T/C (dose: 12.5 mg/kg/injection, schedule: Q01DX009 (ip), vehicle: water) is 120 % of control; the T/C under setting [11] was 101 % of control; the T/C (dose: 12.5 mg/kg/injection, schedule: Q04DX003 (ip), vehicle: water) is 98 % of control; the T/C under setting [12] is 112 % of control. In addition, the T/C runs as follows: (dose: 25.0 mg/kg/injection, schedule: Q01DX009 (ip), vehicle: water) 115 % of control; under setting [13], 107 % of control; (dose: 25.0 mg/kg/injection, schedule: Q04DX003 (ip), vehicle: water) 107 % of control; (dose: 50.0 mg/kg/injection, schedule: Q01DX009 (ip), vehicle: saline) 95 % of control; (dose: 50.0 mg/kg/injection, schedule: Q01DX009 (ip), vehicle: water) 93 % of control; (dose: 50.0 mg/kg/injection, schedule: Q04DX003 (ip), vehicle: saline) 107 % of control.
For `OCCOCCN1CCN(CCCN2c3ccccc3Sc3ccc(C(F)(F)F)cc32)CC1`, the T/C by setting is: (dose: 1.6 mg/kg/injection, schedule: Q01DX009 (ip), vehicle: saline) 104 % of control; (dose: 6.25 mg/kg/injection, schedule: Q01DX009 (ip), vehicle: saline) 117 % of control; (dose: 9.5 mg/kg/injection, schedule: Q01DX001 (ip), vehicle: saline) 100 % of control; under setting [10], 93 % of control; under setting [11], 114 % of control and 124 % of control; (dose: 18.7 mg/kg/injection, schedule: Q04DX003 (ip), vehicle: saline) 124 % of control. For the same compound, the T/C (dose: 18.75 mg/kg/injection, schedule: Q01DX009 (ip), vehicle: saline) is 95 % of control; the T/C (dose: 19.0 mg/kg/injection, schedule: Q01DX001 (ip), vehicle: saline) is 107 % of control; the T/C under setting [12] was 103 % of control; the T/C under setting [13] is 95 % of control and 118 % of control and 120 % of control; the T/C (dose: 33.0 mg/kg/injection, schedule: Q04DX003 (ip), vehicle: saline) was 122 % of control; the T/C (dose: 38.0 mg/kg/injection, schedule: Q01DX001 (ip), vehicle: saline) was 111 % of control. Moreover, the T/C runs as follows: (dose: 120.0 mg/kg/injection, schedule: Q04DX003 (ip), vehicle: saline) 150 % of control; (dose: 150.0 mg/kg/injection, schedule: Q04DX003 (ip), vehicle: saline) 118 % of control; (dose: 1.5 micrograms/kg/injection, schedule: Q01DX009 (ip), vehicle: saline) 95 % of control; (dose: 3.1 micrograms/kg/injection, schedule: Q01DX009 (ip), vehicle: saline) 106 % of control; (dose: 6.2 micrograms/kg/injection, schedule: Q01DX009 (ip), vehicle: saline) 95 % of control; (dose: 12.5 micrograms/kg/injection, schedule: Q01DX009 (ip), vehicle: saline) 93 % of control. Further, the T/C is, setting by setting: (dose: 25.0 micrograms/kg/injection, schedule: Q01DX009 (ip), vehicle: saline) 103 % of control; (dose: 50.0 micrograms/kg/injection, schedule: Q01DX009 (ip), vehicle: saline) 87 % of control; (dose: 100.0 micrograms/kg/injection, schedule: Q01DX009 (ip), vehicle: saline) 103 % of control; (dose: 200.0 micrograms/kg/injection, schedule: Q01DX009 (ip), vehicle: saline) 103 % of control.
For `CCOC(=O)CCN1CCCCCC1`, the T/C reads like this: (dose: 100.0 mg/kg/injection, schedule: Q01DX009 (ip), vehicle: saline) 104 % of control; under setting [14], 92 % of control; (dose: 200.0 mg/kg/injection, schedule: Q01DX009 (ip), vehicle: saline) 104 % of control; under setting [15], 98 % of control; (dose: 400.0 mg/kg/injection, schedule: Q01DX009 (ip), vehicle: saline) 101 % of control; under setting [16], 102 % of control.
Take `Cc1c(Cl)cccc1NC(=O)c1ccccc1`: the T/C under setting [1] is 93 % of control; the T/C under setting [2] is 91 % of control; the T/C under setting [3] was 96 % of control; the T/C under setting [4] was 106 % of control; the T/C under setting [5] was 100 % of control; the T/C under setting [6] is 98 % of control.
With `O=C(O)C1C2CCC(O2)C1C(=O)O` (stereo not drawn), the T/C by setting is: (dose: 100.0 mg/kg/injection, schedule: Q01DX001 (ip), vehicle: carboxymethylcellulose (CMC)) 91 % of control; under setting [7], 100 % of control; (dose: 200.0 mg/kg/injection, schedule: Q01DX001 (ip), vehicle: carboxymethylcellulose (CMC)) 88 % of control; under setting [8], 96 % of control; under setting [9], 102 % of control.
With `O=[N+]([O-])c1cccc(C=Nc2ccc(CCO)cc2)c1`, the T/C runs as follows: under setting [17], 104 % of control; (dose: 200.0 mg/kg/injection, schedule: Q04DX002 (ip), vehicle: Klucel (hydroxypropylcellulose) (HPC)) 121 % of control; (dose: 400.0 mg/kg/injection, schedule: Q04DX002 (ip), vehicle: Klucel (hydroxypropylcellulose) (HPC)) 107 % of control.
Consider `CN1CCC(OC(=O)C(F)(c2ccccc2)c2ccccc2)CC1`, for which the T/C (dose: 20.0 mg/kg/injection, schedule: Q01DX001 (ip), vehicle: saline) was 98 % of control.
As for `C=C(C)c1cc2ccccc2cc1O`, the T/C (dose: 100.0 mg/kg/injection, schedule: Q01DX009 (ip), vehicle: saline with Tween-80) is 98 % of control; the T/C under setting [7] was 90 % of control; the T/C (dose: 200.0 mg/kg/injection, schedule: Q01DX009 (ip), vehicle: saline with Tween-80) was 100 % of control; the T/C under setting [8] is 94 % of control; the T/C (dose: 400.0 mg/kg/injection, schedule: Q01DX009 (ip), vehicle: saline with Tween-80) was 98 % of control; the T/C under setting [9] was 92 % of control.
Turning to `c1ccc2c(Cc3c4ccccc4cc4ccccc34)c3ccccc3cc2c1`, the T/C (dose: 25.0 mg/kg/injection, schedule: Q04DX002 (ip), vehicle: Klucel (hydroxypropylcellulose) (HPC)) was 94 % of control; the T/C (dose: 50.0 mg/kg/injection, schedule: Q04DX002 (ip), vehicle: Klucel (hydroxypropylcellulose) (HPC)) is 97 % of control; the T/C under setting [17] was 90 % of control.
Consider `NNS(=O)(=O)Cc1ccccc1`, for which the T/C (dose: 100.0 mg/kg/injection, schedule: Q01DX001 (ip), vehicle: saline) is 100 % of control and the T/C (dose: 200.0 mg/kg/injection, schedule: Q01DX001 (ip), vehicle: saline) was 95 % of control.
For `CN1CCN(C2CCCCc3ccccc32)CC1` (stereo not drawn), under setting [7], the T/C was 95 % of control.
Regarding `Cc1nc2ccccc2c(C(=O)O)c1C`, the T/C runs as follows: under setting [14], 102 % of control; under setting [15], 96 % of control; under setting [16], 96 % of control.
Turning to `CC1CCCN(C(=O)Nc2cccc(C(F)(F)F)c2)C1` (stereo not drawn), the T/C (dose: 100.0 mg/kg/injection, schedule: Q01DX009 (ip), vehicle: gum acacia) is 100 % of control; the T/C (dose: 200.0 mg/kg/injection, schedule: Q01DX009 (ip), vehicle: gum acacia) is 110 % of control; the T/C (dose: 400.0 mg/kg/injection, schedule: Q01DX009 (ip), vehicle: gum acacia) was 99 % of control.
